Test results published in article PMC4550830, “Pheromone binding proteins enhance the sensitivity of olfactory receptors to sex pheromones in Chilo suppressalis” (Scientific Reports, 2015).
Where “and” joins values, the source holds several entries; their conditions need not be identical. Equal entries are not always repeated. Each block holds one compound with its values, some of them ahead of it.

Key:
CsupPBP3 = target: T1, CsupPBP3 (Chilo suppressalis, UniProt F6K0S3); assay: Fluorescence binding assay (1-NPN titration and competitive displacement), CsupPBP3; conditions: 2 μM protein in 50 mM Tris-HCl titrated with 1-NPN, triplicates
T1 sequence (F6K0S3 22-166): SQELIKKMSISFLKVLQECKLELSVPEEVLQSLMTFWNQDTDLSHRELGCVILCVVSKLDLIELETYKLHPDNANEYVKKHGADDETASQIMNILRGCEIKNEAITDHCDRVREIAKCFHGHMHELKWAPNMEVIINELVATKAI
Experimental: In order to measure the affinity of CsupPBP1–4 to the fluorescent probe N-phenyl-1-naphthylamine (1-NPN), a 2 μM solution of each CsupPBP in 50 mM Tris-HCl buffer was titrated with 1 mM 1-NPN in methanol to final concentrations of 2–16 μM. The affinities of CsupPBP1–4 to other ligands were measured in competitive binding assays, where a 2 μM solution of both CsupPBPs and 1-NPN was titrated with 1 mM methanol solutions of each lignd to final concentrations of 0.2–1.6 μM. The Prism software was used to analyse the data and plot the binding curves. The ability of ligand to compete with 1-NPN was measured in competitive binding assays, where a mixture of the protein and 1-NPN, both at the concentration of 2 μM were titrated with 0.1 mM or 1 mM solutions of each ligand to the final concentrations reported in the figures. Fluorescence intensities are reported as percent of the values measured in the absence of competitors. All experiments were performed in triplicates and mean values and standard errors are reported. Binding constants of competitors were calculated from the corresponding IC50 values using the equation: KD = [IC50]/1 + [1-NPN]/K1-NPN, [1-NPN] being the free concentration of 1-NPN and K1-NPN being the dissociation constant of the complex Protein/1-NPN.

CsupPR1/CsupOrco = assay: Two-electrode voltage clamp recording from Xenopus oocytes coexpressing CsupPR1/CsupOrco; type: cell-based, Chilo suppressalis; conditions: ligand 10^−4 mol/L, each of the four CsupPBPs versus DMSO alone
Source text: (§1) The ORFs encoding CsupPRs were amplified and cloned into pT7Ts vector using specific primers (Supplementary Table S1). The cRNAs of all CsupPRs were synthesized using mMESSAGE Mmachine T7 kit (Ambion, Austin, TX).
(§2) The entire coding region of each CsupOR was sub-cloned into the XhoI/NotI sites of pT7Ts vector (Invitrogen) (Kozak sequence added before the cutting site in forward primer). The cRNAs of all CsupPRs were synthesized using mMESSAGE Mmachine T7 kit (Ambion, Austin, TX).
(§3) Electrophysiological recordings were performed according to previously reported protocols. Mature healthy oocytes (stage V–VII) (Nasco, Salida, California) were treated with collagenase I(GIBCO, Carlsbad, CA) in washing buffer (96 mM NaCl, 2 mM KCl, 5 mM MgCl2, and 5 mM HEPES [pH = 7.6]) for about 1 h at room temperature. […]
(§4) Whole-cell currents were recorded from the injected Xenopus oocytes with a two-electrode voltage clamp. Odorant induced currents were recorded with an OC-725C oocyte clamp (Warner Instruments, Hamden, CT) at a holding potential of […]. […]
(§5) Data acquisition and analyses were carried out with Digidata 1440A and pCLAMP 10.2 software (Axon Instruments Inc., Union City, CA). Statistical comparison of responses of oocytes to the tested ligands and dose-response data were analysed by GraphPad Prism 5.0 (GraphPad Software Inc., San Diego, CA). […]

CsupPR4/CsupOrco = assay: Two-electrode voltage clamp recording from Xenopus oocytes coexpressing CsupPR4/CsupOrco; type: cell-based, Chilo suppressalis
Source text: as §1, §2, §3, §4, §5

CsupPR2/CsupOrco = assay: Two-electrode voltage clamp recording from Xenopus oocytes coexpressing CsupPR2/CsupOrco; type: cell-based, Chilo suppressalis
Source text: as §1, §2
(§6) Electrophysiological recordings were performed according to previously reported protocols. Mature healthy oocytes (stage V–VII) (Nasco, Salida, California) were treated with collagenase I(GIBCO, Carlsbad, CA) in washing buffer (96 mM NaCl, 2 mM KCl, 5 mM MgCl2, and 5 mM HEPES [pH = 7.6]) for about 1 h at room temperature. After being cultured overnight at 18 °C, oocytes were microinjected with 27.6 ng CsupORs cRNA and 27.6 ng CsupOrco cRNA. After injection, oocytes were incubated for 4–7 days at 18 °C in 1X Ringer’s solution (96 mM NaCl, 2 mM KCl, 5 mM MgCl2, 0.8 mM CaCl2, and 5 mM HEPES [pH = 7.6]) supplemented with 5% dialysed horse serum, […].
(§7) Whole-cell currents were recorded from the injected Xenopus oocytes with a two-electrode voltage clamp. Odorant induced currents were recorded with an OC-725C oocyte clamp (Warner Instruments, Hamden, CT) at a holding potential of […]. All experiments on PR responses were performed in six replicates, those involving interactions with PBPs in four replicates.
(§8) Data acquisition and analyses were carried out with Digidata 1440A and pCLAMP 10.2 software (Axon Instruments Inc., Union City, CA). Statistical comparison of responses of oocytes to the tested ligands and dose-response data were analysed by GraphPad Prism 5.0 (GraphPad Software Inc., San Diego, CA).
(§9) Tested pheromone components and analogs were purchased from Nimrod Inc (Changzhou, China, purify 96%). they were dissolved in dimethyl sulfoxide (DMSO) to 1 M Stock solutions and stored at −20 °C. Before testing, the stock solutions were diluted with 1 X Ringer’s buffer (96 mM NaCl, 2 mM KCl, 5 mM MgCl2, 0.8 mM CaCl2 and 5 mM HEPES [pH = 7.6]).

CsupPR6/CsupOrco = assay: Two-electrode voltage clamp recording from Xenopus oocytes coexpressing CsupPR6/CsupOrco; type: cell-based, Chilo suppressalis; conditions: ligand 10^−4 mol/L; for Effect of PBPs on the response of PR6: each of the four CsupPBPs versus DMSO alone
Source text: as §1, §2, §6, §7, §8, §9

[1] = ligand 10^−4 mol/L, each of the four CsupPBPs versus receptor alone

SMILES: c1ccc(Nc2cccc3ccccc23)cc1 [1-NPN, N-phenyl-1-naphthylamine]
Kd (CsupPBP3): ~3 µM and 3.1 µM

SMILES: CCCC/C=C\CCCCCCCCO [Z9–14:OH]
Effect of PBPs on the response of PR1 (CsupPR1/CsupOrco): inhibitory effect
Effect of PBPs on the response of PR4 (CsupPR4/CsupOrco; [1]): inhibitory effect
Effect of PBPs on the response of PR2 (CsupPR2/CsupOrco; [1]): inhibitory effect
Effect of PBPs on the response of PR6 (CsupPR6/CsupOrco): inhibitory effect
Effect of PBPs on the response of PR6 (CsupPR6/CsupOrco; listed as 4): reduction of the signal

SMILES: CCCCCC/C=C\CCCCCCCC=O [Z9–16:Ald, (Z)-9-hexadecenal]
Inward current response of PR4 (CsupPR4/CsupOrco; ligand 0.1 mM, no PBP, n = 6): specifically tuned

Increase in sensitivity (EC50) of PR2 in the presence of PBP1 (CsupPR2/CsupOrco; dose-response with versus without PBP1): to minor extents
Increase in sensitivity (EC50) of PR2 in the presence of PBP2 (CsupPR2/CsupOrco; dose-response with versus without PBP2): more than one order of magnitude
Increase in sensitivity (EC50) of PR2 in the presence of PBP3 (CsupPR2/CsupOrco; dose-response with versus without PBP3): to minor extents
Change in sensitivity (EC50) of PR2 in the presence of PBP4 (CsupPR2/CsupOrco; dose-response with versus without PBP4): not affected
SMILES: CCCC/C=C\CCCCCCCCCC=O [Z11–16:Ald, (Z)-11-hexadecenal]
Response of PR6 in the presence of PBP4 compared with other PBPs (CsupPR6/CsupOrco; PBP4): more strongly activated
Effect of PBPs on the response of PR6 (CsupPR6/CsupOrco): increased
